Measured values from the NIST ThermoML archive (doi:10.1021/acs.jced.5b00662).
± gives the expanded uncertainty stated by the source.

Assay: xn = mol fraction of the nth substance listed
Settings: 100 kPa, Liquid; for speed of sound: Sing-around technique in a fixed-path interferometer; for mass density: Vibrating tube method

CCOCCO [2-ethoxyethan-1-ol] + O
speed of sound (283.15 K, x1 = 0.9426): 1364 ± 1.6 m/s
speed of sound (283.15 K, x1 = 0.949): 1365.8 ± 1.6 m/s
speed of sound (283.15 K, x1 = 0.9549): 1366.2 ± 1.6 m/s
speed of sound (283.15 K, x1 = 0.9567): 1366.8 ± 1.6 m/s
speed of sound (283.15 K, x1 = 0.967): 1361.6 ± 1.8 m/s
mass density (283.15 K, x1 = 0.9426): 943.675 ± 2 kg/m3
mass density (283.15 K, x1 = 0.949): 943.444 ± 2 kg/m3
mass density (283.15 K, x1 = 0.9549): 943.15 ± 2 kg/m3
mass density (283.15 K, x1 = 0.9567): 943.112 ± 2 kg/m3
mass density (283.15 K, x1 = 0.967): 942.599 ± 2 kg/m3
speed of sound (288.15 K, x1 = 0.9426): 1346.2 ± 1.6 m/s
speed of sound (288.15 K, x1 = 0.949): 1347.5 ± 1.5 m/s
speed of sound (288.15 K, x1 = 0.9549): 1347.9 ± 1.6 m/s
speed of sound (288.15 K, x1 = 0.9567): 1348.4 ± 1.6 m/s
speed of sound (288.15 K, x1 = 0.967): 1343.5 ± 1.8 m/s
mass density (288.15 K, x1 = 0.9426): 939.208 ± 2 kg/m3
mass density (288.15 K, x1 = 0.949): 938.975 ± 2 kg/m3
mass density (288.15 K, x1 = 0.9549): 938.68 ± 2 kg/m3
mass density (288.15 K, x1 = 0.9567): 938.638 ± 2 kg/m3
mass density (288.15 K, x1 = 0.967): 938.12 ± 2 kg/m3
speed of sound (293.15 K, x1 = 0.9426): 1328.3 ± 1.5 m/s
speed of sound (293.15 K, x1 = 0.949): 1329.2 ± 1.5 m/s
speed of sound (293.15 K, x1 = 0.9549): 1329.6 ± 1.6 m/s
speed of sound (293.15 K, x1 = 0.9567): 1330.2 ± 1.6 m/s
speed of sound (293.15 K, x1 = 0.967): 1325.6 ± 1.8 m/s
mass density (293.15 K, x1 = 0.9426): 934.713 ± 2 kg/m3
mass density (293.15 K, x1 = 0.949): 934.479 ± 2 kg/m3
mass density (293.15 K, x1 = 0.9549): 934.183 ± 2 kg/m3
mass density (293.15 K, x1 = 0.9567): 934.14 ± 2 kg/m3
mass density (293.15 K, x1 = 0.967): 933.622 ± 2 kg/m3
speed of sound (298.15 K, x1 = 0.9426): 1310.5 ± 1.5 m/s
speed of sound (298.15 K, x1 = 0.949): 1311.1 ± 1.5 m/s
speed of sound (298.15 K, x1 = 0.9549): 1311.3 ± 1.6 m/s
speed of sound (298.15 K, x1 = 0.9567): 1311.8 ± 1.6 m/s
speed of sound (298.15 K, x1 = 0.967): 1307.8 ± 1.7 m/s
mass density (298.15 K, x1 = 0.9426): 930.19 ± 2 kg/m3
mass density (298.15 K, x1 = 0.949): 929.953 ± 2 kg/m3
mass density (298.15 K, x1 = 0.9549): 929.657 ± 2 kg/m3
mass density (298.15 K, x1 = 0.9567): 929.614 ± 2 kg/m3
mass density (298.15 K, x1 = 0.967): 929.099 ± 2 kg/m3
speed of sound (303.15 K, x1 = 0.9426): 1292.8 ± 1.5 m/s
speed of sound (303.15 K, x1 = 0.949): 1293 ± 1.5 m/s
speed of sound (303.15 K, x1 = 0.9549): 1293.2 ± 1.6 m/s
speed of sound (303.15 K, x1 = 0.9567): 1292.6 ± 1.6 m/s
speed of sound (303.15 K, x1 = 0.967): 1289.8 ± 1.6 m/s
mass density (303.15 K, x1 = 0.9426): 925.638 ± 2 kg/m3
mass density (303.15 K, x1 = 0.949): 925.399 ± 2 kg/m3
mass density (303.15 K, x1 = 0.9549): 925.102 ± 2 kg/m3
mass density (303.15 K, x1 = 0.9567): 925.055 ± 2 kg/m3
mass density (303.15 K, x1 = 0.967): 924.54 ± 2 kg/m3
speed of sound (308.15 K, x1 = 0.9426): 1275 ± 1.5 m/s
speed of sound (308.15 K, x1 = 0.949): 1275.3 ± 1.5 m/s
speed of sound (308.15 K, x1 = 0.9549): 1275.2 ± 1.6 m/s
speed of sound (308.15 K, x1 = 0.9567): 1274.3 ± 1.6 m/s
speed of sound (308.15 K, x1 = 0.967): 1272 ± 1.6 m/s
mass density (308.15 K, x1 = 0.9426): 921.054 ± 2 kg/m3
mass density (308.15 K, x1 = 0.949): 920.815 ± 2 kg/m3
mass density (308.15 K, x1 = 0.9549): 920.517 ± 2 kg/m3
mass density (308.15 K, x1 = 0.9567): 920.467 ± 2 kg/m3
mass density (308.15 K, x1 = 0.967): 919.951 ± 2 kg/m3
speed of sound (313.15 K, x1 = 0.9426): 1257.4 ± 1.5 m/s
speed of sound (313.15 K, x1 = 0.949): 1257.6 ± 1.5 m/s
speed of sound (313.15 K, x1 = 0.9549): 1256.6 ± 1.6 m/s
speed of sound (313.15 K, x1 = 0.9567): 1256.1 ± 1.6 m/s
speed of sound (313.15 K, x1 = 0.967): 1254.3 ± 1.6 m/s
mass density (313.15 K, x1 = 0.9426): 916.435 ± 2 kg/m3
mass density (313.15 K, x1 = 0.949): 916.194 ± 2 kg/m3
mass density (313.15 K, x1 = 0.9549): 915.892 ± 2 kg/m3
mass density (313.15 K, x1 = 0.9567): 915.843 ± 2 kg/m3
mass density (313.15 K, x1 = 0.967): 915.328 ± 2 kg/m3
speed of sound (323.15 K, x1 = 0.9426): 1222.2 ± 1.5 m/s
speed of sound (323.15 K, x1 = 0.949): 1222.2 ± 1.5 m/s
speed of sound (323.15 K, x1 = 0.9549): 1220.3 ± 1.5 m/s
speed of sound (323.15 K, x1 = 0.9567): 1220.2 ± 1.5 m/s
speed of sound (323.15 K, x1 = 0.967): 1218.9 ± 1.5 m/s
mass density (323.15 K, x1 = 0.9426): 907.087 ± 2 kg/m3
mass density (323.15 K, x1 = 0.949): 906.839 ± 2 kg/m3
mass density (323.15 K, x1 = 0.9549): 906.54 ± 2 kg/m3
mass density (323.15 K, x1 = 0.9567): 906.493 ± 2 kg/m3
mass density (323.15 K, x1 = 0.967): 905.969 ± 2 kg/m3
speed of sound (333.15 K, x1 = 0.9426): 1187.1 ± 1.5 m/s
speed of sound (333.15 K, x1 = 0.949): 1186.9 ± 1.5 m/s
speed of sound (333.15 K, x1 = 0.9549): 1185.1 ± 1.5 m/s
speed of sound (333.15 K, x1 = 0.9567): 1184.9 ± 1.5 m/s
speed of sound (333.15 K, x1 = 0.967): 1183.7 ± 1.5 m/s
mass density (333.15 K, x1 = 0.9426): 897.58 ± 2 kg/m3
mass density (333.15 K, x1 = 0.949): 897.329 ± 2 kg/m3
mass density (333.15 K, x1 = 0.9549): 897.036 ± 2 kg/m3
mass density (333.15 K, x1 = 0.9567): 896.985 ± 2 kg/m3
mass density (333.15 K, x1 = 0.967): 896.461 ± 2 kg/m3
speed of sound (343.15 K, x1 = 0.9426): 1152 ± 1.5 m/s
speed of sound (343.15 K, x1 = 0.949): 1151.1 ± 1.5 m/s
speed of sound (343.15 K, x1 = 0.9549): 1150.1 ± 1.5 m/s
speed of sound (343.15 K, x1 = 0.9567): 1149.8 ± 1.5 m/s
speed of sound (343.15 K, x1 = 0.967): 1148.6 ± 1.5 m/s
mass density (343.15 K, x1 = 0.9426): 887.911 ± 2 kg/m3
mass density (343.15 K, x1 = 0.949): 887.628 ± 2 kg/m3
mass density (343.15 K, x1 = 0.9549): 887.337 ± 2 kg/m3
mass density (343.15 K, x1 = 0.9567): 887.297 ± 2 kg/m3
mass density (343.15 K, x1 = 0.967): 886.774 ± 2 kg/m3
